The target of one assay is Leukotriene B4 receptor (Homo sapiens, UniProt Q9NPC1+Q15722). The experiment in a line: LTB4 receptor binding from radioligand binding assay using human intact neutrophils PMN.
Assay [1] is described as follows: LTB4 receptor binding from radioligand binding assay using guinea pig spleen cell membrane.
Assay [2] concerns the target T1, Leukotriene B4 receptor 1 (Homo sapiens, UniProt Q15722). The assay can be described thus: Compound was evaluated for LTB4 receptor binding obtained from radioligand binding assay using human intact neutrophils PMN; No activity.
Assay [3] deals with T1, Leukotriene B4 receptor 1. The experiment in a line: Compound was evaluated for LTB4 receptor binding, obtained from radioligand binding assay using human intact neutrophils PMN.

Structures are written as SMILES.

The IC50 is the concentration needed to halve the response being measured.

T1 sequence (Q15722 whole entry): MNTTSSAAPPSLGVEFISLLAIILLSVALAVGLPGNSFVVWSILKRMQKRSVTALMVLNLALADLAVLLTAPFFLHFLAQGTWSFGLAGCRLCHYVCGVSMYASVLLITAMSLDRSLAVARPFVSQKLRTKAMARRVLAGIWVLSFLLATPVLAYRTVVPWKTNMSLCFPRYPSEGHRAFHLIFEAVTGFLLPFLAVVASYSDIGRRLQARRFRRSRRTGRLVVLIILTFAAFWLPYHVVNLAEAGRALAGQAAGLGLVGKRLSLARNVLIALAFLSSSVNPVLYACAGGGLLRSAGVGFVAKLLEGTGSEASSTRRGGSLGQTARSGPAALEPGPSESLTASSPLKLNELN

Turning to `CN(CCc1ccccc1)C(=O)Cc1cc(/C=C/C(=O)O)cc2c(OCc3ccccc3)cccc12`, the values for the IC50 (on Leukotriene B4 receptor; in assay [1]) were 3.55 nM and 0.58 nM, respectively.

For `CN(CCc1ccccc1)C(=O)Cn1c(C(=O)O)cc2cc(OCc3ccccc3)ccc21`, the results for the IC50 (on Leukotriene B4 receptor; in assay [1]) were 11.2 nM and 2.5 nM, respectively.

For `CN(CCc1ccccc1)C(=O)Cn1cc(/C=C/C(=O)O)c2cccc(OCc3ccccc3)c21`, the figures for the IC50 entry in assay [2] and in assay [1] were “Not Active” and greater than 300 nM, respectively.

For `CN(CCc1ccccc1)C(=O)Cn1cc(/C=C/C=C/C(=O)O)c2c(OCc3ccccc3)cccc21`, the figures for the IC50 (at Leukotriene B4 receptor; in assay [1]) were 15 nM and 1.5 nM, respectively.

In the case of `CN(CCc1ccccc1)C(=O)Cc1cc(C(=O)O)cc2cc(OCc3ccccc3)ccc12`, the IC50 at Leukotriene B4 receptor worked out at 7.75 nM; in assay [1], 1.07 nM.

With `CN(CCc1ccccc1)C(=O)Cn1cc(C(C(=O)O)c2ccccc2)c2c(OCc3ccccc3)cccc21` (stereo not drawn), the IC50 at Leukotriene B4 receptor was found to be 19 nM; in assay [1], 2.5 nM.

In turn, `CN(O)C(=O)c1cc(CC(=O)N(C)CCc2ccccc2)c2cccc(OCc3ccccc3)c2c1` showed an IC50 in assay [3] of 60 nM.

Take `COc1cccc2c(CC(=O)N(C)CCc3ccccc3)cc(C(=O)O)cc12`: the results for the IC50 (on Leukotriene B4 receptor; in assay [1]) were 700 nM and greater than 30 nM, respectively.

`CN(CCc1ccccc1)C(=O)Cc1cc(CCC(=O)O)cc2c(-c3ccccc3)cccc12`: the values for the IC50 (on Leukotriene B4 receptor; in assay [1]) were 40 nM and 3.5 nM, respectively.

For the molecule `CN(CCc1ccccc1)C(=O)Cn1cc(C(=O)c2cccc(C(=O)O)c2)c2cc(OCc3ccccc3)ccc21`, the figures for the IC50 (on Leukotriene B4 receptor; in assay [1]) were 8.5 nM and 12 nM, respectively.

For the molecule `CC/C(=C\c1cn(CC(=O)N(C)CCc2ccccc2)c2ccc(OCc3ccccc3)cc12)C(=O)O`, the 50% inhibitory concentration (IC50) on Leukotriene B4 receptor came to 7.6 nM; in assay [1], 1.3 nM.

On to `CN(CCc1ccccc1)C(=O)Cc1cc(CCC(=O)O)cc2c(Oc3ccccc3)cccc12`, for which the figures for the IC50 (at Leukotriene B4 receptor; in assay [1]) were 250 nM and 20 nM, respectively.

For `CN(CCc1ccccc1)C(=O)Cc1cc(C(=O)O)cc2c(-c3ccccc3)cccc12`, the IC50 at Leukotriene B4 receptor is given as 8.25 nM; in assay [1] it was 0.45 nM.

Consider `CN(CCc1ccccc1)C(=O)Cn1cc(C=O)c2cc(OCc3ccccc3)ccc21`, for which, in assay [3], the IC50 was greater than 300 nM.

Regarding `Cc1c(C(=O)O)c2cc(OCc3ccccc3)ccc2n1CC(=O)N(C)CCc1ccccc1`, the IC50 on Leukotriene B4 receptor amounted to 90 nM; in assay [1], 5 nM.

For the molecule `CN(CCc1ccccc1)C(=O)Cn1cc(/C=C/C=C/C(=O)O)c2cc(OCc3ccccc3)ccc21`, the IC50 came to 19 nM on Leukotriene B4 receptor and 8 nM in assay [1].

For the molecule `CN(CCc1ccccc1)C(=O)Cc1cc(/C=C/C2N=NN=N2)cc2c(OCc3ccccc3)cccc12`, the IC50 was 5 nM on Leukotriene B4 receptor and 3 nM in assay [1].

Turning to `CN(CCc1ccccc1)C(=O)Cn1cc(/C=C/C(=O)O)c2c(OCc3ccccc3)cccc21`, the results for the IC50 (at Leukotriene B4 receptor; in assay [1]) were 16.5 nM and 1 nM, respectively.

As for `C/C(=C\c1cn(CC(=O)N(C)CCc2ccccc2)c2ccc(OCc3ccccc3)cc12)C(=O)O`, the IC50 is 11 nM at Leukotriene B4 receptor and 5 nM in assay [1].

Turning to `CN(CCc1ccccc1)C(=O)Cn1cc(C(=O)O)c2c(OCc3ccccc3)cccc21`, the IC50 amounted to 20.3 nM on Leukotriene B4 receptor and 1.45 nM in assay [1].

With `CN(CCc1ccccc1)C(=O)Cc1cc(C(=O)O)c(OCc2ccccc2)c2ccccc12`, the IC50 on Leukotriene B4 receptor is reported as 80 nM; in assay [1], 6.5 nM.

The molecule `CN(CCc1ccccc1)C(=O)Cn1cc(CC(=O)O)c2cc(OCc3ccccc3)ccc21` gave an IC50 in assay [1] of 30 nM.

As for `CN(CCc1ccccc1)C(=O)Cn1cc(C(=O)O)c2cc(OCc3ccccc3)ccc21`, the IC50 is recorded as 26.3 nM at Leukotriene B4 receptor and 1.5 nM in assay [1].

For `CC/C(=C\c1cn(CC(=O)N(C)CCc2ccccc2)c2cccc(OCc3ccccc3)c12)C(=O)O`, the IC50 at Leukotriene B4 receptor was 35 nM; in assay [1], 1.5 nM.

The molecule `CN(CCc1ccccc1)C(=O)Cn1cc(CCC(=O)O)c2cc(OCc3ccccc3)ccc21` came in with an IC50 in assay [1] of 40 nM.

On to `CN(CCc1ccccc1)C(=O)Cn1cc(/C=C/C2N=NN=N2)c2cc(OCc3ccccc3)ccc21`, for which the half-inhibitory concentration (IC50) on Leukotriene B4 receptor is listed as 19 nM; in assay [1] it was 4.5 nM.

As to `CCCCCOc1cccc2c(CC(=O)N(C)CCc3ccccc3)cc(C(=O)O)cc12`, the results for the IC50 (on Leukotriene B4 receptor; in assay [1]) were 9 nM and 0.6 nM, respectively.

With `CN(CCc1ccccc1)C(=O)Cn1cc(/C=C/C(=O)O)c2ccc(OCc3ccccc3)cc21`, the IC50 in assay [1] is greater than 300 nM.

In the case of `CN(CCc1ccccc1)C(=O)Cc1cc(CCCCC(=O)O)cc2c(OCc3ccccc3)cccc12`, the figures for the IC50 (on Leukotriene B4 receptor; in assay [1]) were 100 nM and 2.8 nM, respectively.

In the case of `C/C(=C\c1cn(CC(=O)N(C)CCc2ccccc2)c2cccc(OCc3ccccc3)c12)C(=O)O`, the IC50 stood at 24.5 nM on Leukotriene B4 receptor and 2.33 nM in assay [1].

In the case of `CN(CCc1ccccc1)C(=O)Cc1cc(C(=O)O)cc2c(Oc3ccccc3)cccc12`, the results for the IC50 (on Leukotriene B4 receptor; in assay [1]) were 25 nM and 1.5 nM, respectively.

Regarding `CN(CCc1ccccc1)C(=O)Cc1cc(/C=C/C(=O)O)cc2c(-c3ccccc3)cccc12`, the IC50 at Leukotriene B4 receptor stood at 50 nM; in assay [1], 1 nM.

As for `CC/C(=C\c1cc(CC(=O)N(C)CCc2ccccc2)c2cccc(OCc3ccccc3)c2c1)C(=O)O`, the IC50 at Leukotriene B4 receptor turned out to be 50 nM; in assay [1] it was 0.8 nM.

Consider `CN(CCc1ccccc1)C(=O)Cc1cc(/C=C/C=C/C(=O)O)cc2c(OCc3ccccc3)cccc12`, for which the results for the IC50 (on Leukotriene B4 receptor; in assay [1]) were 8 nM and 1 nM, respectively.

`CN(CCc1ccccc1)C(=O)Cn1cc(/C=C/C(=O)O)c2cc(OCc3ccccc3)ccc21`: the values for the 50% inhibitory concentration (IC50) (on Leukotriene B4 receptor; in assay [1]) were 53 nM and 4.3 nM, respectively.

Turning to `CN(CCc1ccccc1)C(=O)Cc1cc(/C=C/C(=O)O)cc2c(Oc3ccccc3)cccc12`, the IC50 stood at 20 nM at Leukotriene B4 receptor and 2 nM in assay [1].

Take `CN(CCc1ccccc1)C(=O)Cc1cc(CCC(=O)O)cc2c(OCc3ccccc3)cccc12`: in assay [1], the IC50 is on record as 10 nM.
